Measurements taken from patent US20180028516A1, “METHODS AND DEVICES FOR THE TREATMENT OF OCULAR DISEASES IN HUMAN SUBJECTS” (CLEARSIDE BIOMEDICAL, INC., priority 2012, published 2018).

Legend:
[1] = Ocular and systemic pharmacokinetics of TA, SCS vs IVT (Example 10); type: in vivo, New Zealand White rabbit
Protocol: In this study, the ocular and systemic pharmacokinetics (PK) of triar cinolone acetonide (TA) in the New Zealand White rabbit following intravitreal […] injection or administration into the suprachoroidal space (SCS) using a hollow rnicroneedle were evaluated.
On Day 0, male rabbits (5 per group) received a single bilateral administration of 4 mg TA (100 μL Triesence triamcinolone formulationAlcon Labs) via SCS injection using a 33 g 750 μm microneedle or an IVT injection using a standard 30 g needle. The study design is shown below in Table 4.
Clinical observations, body weights, and intraocular pressure (IOP) were assessed up to 13 weeks post-dose. Plasma and ocular matrixes (aqueous humor (AH), lens, iris/ciliary body (ICB), vitreous humor (VH), sclera/choroid (SC), and retina) were sampled on Days 1, 14, 28, 56, and 91. Plasma (LLOQ 0.5 ng/mL) and ocular matrixes (LLOQ 2 -15 ng/mL) were analyzed using LC-MS/MS, and resulting data were assessed for noncompartmentat PK parameters.

[2] = Ophthalmic examinations and clinical observations after 4 mg SCS TA (Example 16); type: in vivo, New Zealand White rabbit; conditions: single bilateral suprachoroidal injection of 4 mg TA, albino rabbit
Protocol: In this study, the ocular tolerability and toxicokinetics of suprachoroidal administration of Ting triamcinolone acetonide (TA) using microneedle was determined, in the New Zealand White rabbit as an animal model.
On Day 0, New Zealand White (NZW) rabbits (4/sex/group/terminal time point, 48 total) were administered a single bilateral suprachoroidal injection of 100 μL of 4 ma TA (40 mg/mL) or vehicle, using a 33 g 750 μm microneedle. Clinical Observations, body weights, food consumption, slit lamp biomicroscopy with McDonald-Shadduck scoring, indirect ophthalmoscopy, intraocular pressure assessment (IOP), central corneal thickness (CCT), electroretinography (ERG), serum chemistry and hematology, and systemic exposure were assessed up to 13 weeks post-dose. Animals were sacrificed on Day 1 or Week 13 and were evaluated for macroscopic observations at necropsy and ocular histopathology. Four animals/sex were given an additional suprachoroidal administration on Day 90, and will be followed for an additional 13 weeks.

[3] = Intraocular pressure after SCS TA (Example 9); type: in vivo, New Zealand White rabbit; conditions: 3.2 or 5.2 mg TA SCS
Protocol: In this study, the ocular tolerability and toxicokinetics of suprachoroidal administration of triamcinolone acetonide (TA) using a microneedle in a GLP study in the New Zealand White rabbit.
On Day 0, New Zealand White (NZW) rabbits were administered a single bilateral supraehoroidal injection of vehicle, 3.2 mg (80 μL) or 5.2 mg (130 μL) of TA (Triesence®, Alcoa labs) using a 33 g 750 μm microneedle. Clinical observations, slit lamp biomicroscopy with McDonald-Shadduck scoring, intraocular pressure assessment (IOP), electroretinography (ERG), and systemic exposure were assessed up to 26 weeks post-dose. Animals were sacrificed on Day 1, Week 13, and Week 26 for macroscopic observations, ocular toxicokinetics, and ocular histopathology.

[4] = Optical coherence tomography, retinal thickness (Example 13); type: in vivo, domestic weanling pigs; conditions: all groups, prior to or following the injections
Text: Following wide-field ocular tlindus photography on Days −1, 0, and 3, the central retina was imaged with spectral-domain optical coherence tomography (SD-OCT) (Bioptigen SDOCT EnVisu Ophthalmic Imaging System, Durham, N.C.) using 6 imaging protocols (including rectangular volume scans of 6, 8, and 12 mm, and doppler rectangular volume).

CC1(C)O[C@@H]2C[C@H]3[C@@H]4CCC5=CC(=O)C=C[C@]5(C)[C@@]4(F)[C@@H](O)C[C@]3(C)[C@]2(C(=O)CO)O1 [TA, triamcinolone acetonide]
increase of AUC in VH, IVT TA compared with SCS TA ([1]; 4 mg TA): 52 fold
increase of AUC in aqueous Humor, IVT TA compared with SCS TA ([1]; 4 mg TA): 63 fold
increase of AUC in iris/ciliary body, IVT TA compared with SCS TA ([1]; 4 mg TA): 44 fold
increase of AUC in lens, IVT TA compared with SCS TA ([1]; 4 mg TA): 690 fold
increase of AUC in the sclera/choroid, SCS TA compared with IVT TA ([1]; 4 mg TA): 11 fold
increase of Cmax in VH, IVT TA compared with SCS TA ([1]; 4 mg TA): 4 fold
increase of Cmax in aqueous Humor, IVT TA compared with SCS TA ([1]; 4 mg TA): 250 fold
increase of Cmax in iris/ciliary body, IVT TA compared with SCS TA ([1]; 4 mg TA): 24 fold
increase of Cmax in lens, IVT TA compared with SCS TA ([1]; 4 mg TA): 290 fold
increase of Cmax in the sclera/choroid, SCS TA compared with IVT TA ([1]; 4 mg TA): 10 fold
AUC0-t ([1]; Aqueous Humor, IVT 4 mg TA): 8,500 ng · day/mL
Clast ([1]; Aqueous Humor, IVT 4 mg TA): 42 ng/mL
Cmax ([1]; Aqueous Humor, IVT 4 mg TA): 269 ng/mL
Tlast ([1]; Aqueous Humor, IVT 4 mg TA): 91 days
Tmax ([1]; Aqueous Humor, IVT 4 mg TA): 14 days
Clast ([1]; Aqueous Humor, SCS 4 mg TA): 16 ng/mL
Cmax ([1]; Aqueous Humor, SCS 4 mg TA): 16 ng/mL
Tlast ([1]; Aqueous Humor, SCS 4 mg TA): 28 days
AUC0-t ([1]; Iris/Ciliary body, IVT 4 mg TA): 40,900,000 ng · day/mL
Clast ([1]; Iris/Ciliary body, IVT 4 mg TA): 463,000 ng/mL
Cmax ([1]; Iris/Ciliary body, IVT 4 mg TA): 1,260,000 ng/mL
Tlast ([1]; Iris/Ciliary body, IVT 4 mg TA): 91 days
Tmax ([1]; Iris/Ciliary body, IVT 4 mg TA): 1 days
AUC0-t ([1]; Iris/Ciliary body, SCS 4 mg TA): 1,190,000 ng · day/mL
AUC0-∞ ([1]; Iris/Ciliary body, SCS 4 mg TA): 1,190,000 ng · day/mL
Clast ([1]; Iris/Ciliary body, SCS 4 mg TA): 247 ng/mL
Cmax ([1]; Iris/Ciliary body, SCS 4 mg TA): 50,200 ng/mL
T1/2 ([1]; Iris/Ciliary body, SCS 4 mg TA): 9 days
Tlast ([1]; Iris/Ciliary body, SCS 4 mg TA): 91 days
Tmax ([1]; Iris/Ciliary body, SCS 4 mg TA): 1 days
AUC0-t ([1]; Lens, IVT 4 mg TA): 12,600,000 ng · day/mL
Clast ([1]; Lens, IVT 4 mg TA): 40,300 ng/mL
Cmax ([1]; Lens, IVT 4 mg TA): 540,000 ng/mL
Tlast ([1]; Lens, IVT 4 mg TA): 91 days
Tmax ([1]; Lens, IVT 4 mg TA): 14 days
AUC0-t ([1]; Lens, SCS 4 mg TA): 27,400 ng · day/mL
Clast ([1]; Lens, SCS 4 mg TA): 9 ng/mL
Cmax ([1]; Lens, SCS 4 mg TA): 1,870 ng/mL
Tlast ([1]; Lens, SCS 4 mg TA): 91 days
Tmax ([1]; Lens, SCS 4 mg TA): 1 days
AUC0-t ([1]; Retina, IVT 4 mg TA): 25,100,000 ng · day/mL
AUC0-∞ ([1]; Retina, IVT 4 mg TA): 26,300,000 ng · day/mL
Clast ([1]; Retina, IVT 4 mg TA): 41,500 ng/mL
Cmax ([1]; Retina, IVT 4 mg TA): 781,000 ng/mL
T1/2 ([1]; Retina, IVT 4 mg TA): 21 days
Tlast ([1]; Retina, IVT 4 mg TA): 91 days
Tmax ([1]; Retina, IVT 4 mg TA): 14 days
AUC0-t ([1]; Retina, SCS 4 mg TA): 24,600,000 ng · day/mL
Clast ([1]; Retina, SCS 4 mg TA): 2,600 ng/mL
Cmax ([1]; Retina, SCS 4 mg TA): 907,000 ng/mL
Tlast ([1]; Retina, SCS 4 mg TA): 91 days
Tmax ([1]; Retina, SCS 4 mg TA): 1 days
quantifiability of TA in ocular matrixes ([1]; SCS and IVT, 4 mg TA): quantifiable in all ocular matrixes through Day 91
AUC0-t ([1]; Sclera/choroid, IVT 4 mg TA): 8,640,000 ng · day/mL
AUC0-∞ ([1]; Sclera/choroid, IVT 4 mg TA): 10,300,000 ng · day/mL
Clast ([1]; Sclera/choroid, IVT 4 mg TA): 27,100 ng/mL
Cmax ([1]; Sclera/choroid, IVT 4 mg TA): 235,000 ng/mL
T1/2 ([1]; Sclera/choroid, IVT 4 mg TA): 43 days
Tlast ([1]; Sclera/choroid, IVT 4 mg TA): 91 days
Tmax ([1]; Sclera/choroid, IVT 4 mg TA): 14 days
AUC0-t ([1]; Sclera/choroid, SCS 4 mg TA): 101,000,000 ng · day/mL
AUC0-∞ ([1]; Sclera/choroid, SCS 4 mg TA): 101,000,000 ng · day/mL
Clast ([1]; Sclera/choroid, SCS 4 mg TA): 34,000 ng/mL
Cmax ([1]; Sclera/choroid, SCS 4 mg TA): 2,860,000 ng/mL
T1/2 ([1]; Sclera/choroid, SCS 4 mg TA): 11 days
Tlast ([1]; Sclera/choroid, SCS 4 mg TA): 91 days
Tmax ([1]; Sclera/choroid, SCS 4 mg TA): 1 days
AUC0-t ([1]; Vitreous Humor, IVT 4 mg TA): 77,600,000 ng · day/mL
AUC0-∞ ([1]; Vitreous Humor, IVT 4 mg TA): 85,500,000 ng · day/mL
Clast ([1]; Vitreous Humor, IVT 4 mg TA): 218,000 ng/mL
Cmax ([1]; Vitreous Humor, IVT 4 mg TA): 1,640,000 ng/mL
T1/2 ([1]; Vitreous Humor, IVT 4 mg TA): 25 days
Tlast ([1]; Vitreous Humor, IVT 4 mg TA): 91 days
Tmax ([1]; Vitreous Humor, IVT 4 mg TA): 1 days
AUC0-t ([1]; Vitreous Humor, SCS 4 mg TA): 3,460,000 ng · day/mL
Clast ([1]; Vitreous Humor, SCS 4 mg TA): 10 ng/mL
Cmax ([1]; Vitreous Humor, SCS 4 mg TA): 287,000 ng/mL
Tlast ([1]; Vitreous Humor, SCS 4 mg TA): 91 days
Tmax ([1]; Vitreous Humor, SCS 4 mg TA): 1 days
systemic exposure ([1]; either route (IVT or SCS), 4 mg TA): minimal
TA peak concentration in plasma ([1]; peaked on Day 1, both groups (SCS and IVT, 4 mg TA)): 4 ng/mL
tolerability [2]: well tolerated
effect on IOP [3]: No effect
retinal thickness (SD-OCT), difference between groups [4]: no significant difference
